Calls of active or inactive are those of the source. No cut-off for these calls is given here.
Legend:
[1] = system: SK-MEL-28; test: Antiproliferative activity against human SK-MEL-28 cells assessed as growth inhibition after 48 hrs by sulforhodamine B assay; format: functional; conditions: SK-MEL-28, 48 h
[2] = system: MDA-MB-231; test: Antiproliferative activity against human MDA-MB-231/ATCC cells assessed as growth inhibition after 48 hrs by sulforhodamine B assay; format: functional; conditions: MDA-MB-231, 48 h
[3] = system: SF-295; test: Antiproliferative activity against human SF295 cells assessed as growth inhibition after 48 hrs by sulforhodamine B assay; format: functional; conditions: SF-295, 48 h
[4] = system: COLO 205; test: Antiproliferative activity against human COLO205 cells assessed as growth inhibition after 48 hrs by sulforhodamine B assay; format: functional; conditions: COLO 205, 48 h
[5] = system: HL-60(TB); test: Antiproliferative activity against human HL-60(TB) cells assessed as growth inhibition after 48 hrs by sulforhodamine B assay; format: functional; conditions: HL-60, 48 h
[6] = system: NCI-H460; test: Antiproliferative activity against human NCI-H460 cells assessed as growth inhibition after 48 hrs by sulforhodamine B assay; format: functional; conditions: NCI-H460, 48 h
[7] = system: NCI-H226; test: Antiproliferative activity against human NCI-H226 cells assessed as growth inhibition after 48 hrs by sulforhodamine B assay; format: functional; conditions: NCI-H226, 48 h
[8] = Antioxidant activity assessed as ABTS radical scavenging activity by spectrophotometric method relative to ascorbic acid; format: functional
[9] = Antioxidant activity assessed as ABTS radical scavenging activity by spectrophotometric analysis relative to control; format: functional; design: concentration or dose not given beside the values; conditions: dose or concentration not given here
[10] = Haemolytic activity in human erythrocytes assessed as induction of hemolysis at 10 mM after 30 mins relative to H202; format: cell-based, Erythrocyte; conditions: read-out: Activity
[11] = system: 786-0; test: Antiproliferative activity against human 786-0 cells assessed as growth inhibition after 48 hrs by sulforhodamine B assay; format: functional; conditions: 786-0, 48 h
[12] = system: SK-MEL-5; test: Antiproliferative activity against human SK-MEL-5 cells assessed as growth inhibition after 48 hrs by sulforhodamine B assay; format: functional; conditions: SK-MEL-5, 48 h
[13] = system: M14; test: Antiproliferative activity against human M14 cells assessed as growth inhibition after 48 hrs by sulforhodamine B assay; format: functional; conditions: M14, 48 h
[14] = system: SW-620; test: Antiproliferative activity against human SW620 cells assessed as growth inhibition after 48 hrs by sulforhodamine B assay; format: functional; conditions: SW-620, 48 h
[15] = system: UACC-62; test: Antiproliferative activity against human UACC62 cells assessed as growth inhibition after 48 hrs by sulforhodamine B assay; format: functional; conditions: UACC-62, 48 h
[16] = system: NCI-H322M; test: Antiproliferative activity against human NCI-H322M cells assessed as growth inhibition after 48 hrs by sulforhodamine B assay; format: functional
[17] = system: MDA-MB-435; test: Antiproliferative activity against human MDA-MB-435 cells assessed as growth inhibition after 48 hrs by sulforhodamine B assay; format: functional; conditions: MDA-MB-435, 48 h
[18] = system: IGROV-1; test: Antiproliferative activity against human IGROV1 cells assessed as growth inhibition after 48 hrs by sulforhodamine B assay; format: functional; conditions: IGROV-1, 48 h
[19] = system: DU-145; test: Antiproliferative activity against human DU145 cells assessed as growth inhibition after 48 hrs by sulforhodamine B assay; format: functional; conditions: DU-145, 48 h
[20] = system: HCT-116; test: Induction of apoptosis in human HCT116 cells assessed as increase in p53 mRNA expression at 100 nM after 6 hrs hrs by SYBR green dye-based qRT-PCR analysis relative to control; format: functional
[21] = system: NCI-H522; test: Antiproliferative activity against human NCI-H522 cells assessed as growth inhibition after 48 hrs by sulforhodamine B assay; format: functional; conditions: NCI-H522, 48 h
[22] = system: HCT-116; test: […] in CDK1 mRNA expression in human HCT116 cells at 100 nM after 6 hrs hrs by SYBR green dye-based qRT-PCR analysis relative to control; format: functional
[23] = system: Malme-3M; test: Antiproliferative activity against human MALME-3M cells assessed as growth inhibition after 48 hrs by sulforhodamine B assay; format: functional
[24] = system: SNB-19; test: Antiproliferative activity against human SNB19 cells assessed as growth inhibition after 48 hrs by sulforhodamine B assay; format: functional; conditions: SNB-19, 48 h
[25] = system: Panel NCI-60 (60 carcinoma cell lines); test: Antiproliferative activity against human NCI60 cells assessed as growth inhibition at 10 uM after 48 hrs by sulforhodamine B assay; format: functional; conditions: read-out: GI
[26] = Pro-oxidant activity assessed as increase in bleomycin-Fe2+ induced calf thymus DNA damage at 2 mM after 1 hr by thiobarbituric acid based absorbance analysis
[27] = system: HCT-116; test: Induction of apoptosis in human HCT116 cells assessed as increase in caspase 9 mRNA expression at 100 nM after 6 hrs hrs by SYBR green dye-based qRT-PCR analysis relative to control; format: functional
[28] = system: SK-OV-3; test: Antiproliferative activity against human SKOV3 cells assessed as growth inhibition after 48 hrs by sulforhodamine B assay; format: functional; conditions: SK-OV-3, 48 h
[29] = Selectivity index, ratio of IC50 for human WI38 cells to GI50 for human NCI60 cells
[30] = system: MCF7; test: Antiproliferative activity against human MCF7 cells assessed as growth inhibition after 48 hrs by sulforhodamine B assay; format: functional; conditions: MCF7, 48 h
[31] = system: EKVX; test: Antiproliferative activity against human EKVX cells assessed as growth inhibition after 48 hrs by sulforhodamine B assay; format: functional
[32] = system: OVCAR-5; test: Antiproliferative activity against human OVCAR5 cells assessed as growth inhibition after 48 hrs by sulforhodamine B assay; format: functional; conditions: OVCAR-5, 48 h
[33] = Antioxidant activity assessed as hydroxyl radical scavenging activity after 1 hr by salicylic acid-based Fenton reaction assay; format: functional
[34] = system: RPMI-8226; test: Antiproliferative activity against human RPMI8226 cells assessed as growth inhibition after 48 hrs by sulforhodamine B assay; format: functional; conditions: RPMI-8226, 48 h
[35] = system: SF-268; test: Antiproliferative activity against human SF268 cells assessed as growth inhibition after 48 hrs by sulforhodamine B assay; format: functional; conditions: SF-268, 48 h
[36] = system: HCT-116; test: Antiproliferative activity against human HCT116 cells assessed as growth inhibition after 48 hrs by sulforhodamine B assay; format: functional; conditions: HCT-116, 48 h
[37] = Haemolytic activity in human erythrocytes assessed as induction of hemolysis at 5 mM after 30 mins relative to H202; format: cell-based, Erythrocyte; conditions: read-out: Activity
[38] = system: CCRF-CEM; test: Antiproliferative activity against human CCRF-CEM cells assessed as growth inhibition after 48 hrs by sulforhodamine B assay; format: functional
[39] = system: ACHN; test: Antiproliferative activity against human ACHN cells assessed as growth inhibition after 48 hrs by sulforhodamine B assay; format: functional
[40] = system: Panel NCI-60 (60 carcinoma cell lines); test: Antiproliferative activity against human NCI60 cells assessed as growth inhibition after 48 hrs by sulforhodamine B assay; format: functional
[41] = system: SN12C; test: Antiproliferative activity against human SN12C cells assessed as growth inhibition after 48 hrs by sulforhodamine B assay; format: functional
[42] = system: SK-MEL-2; test: Antiproliferative activity against human SK-MEL-2 cells assessed as growth inhibition after 48 hrs by sulforhodamine B assay; format: functional; conditions: SK-MEL-2, 48 h

COc1cc(-c2ccc(-c3ccc(C(=N)N)s3)s2)cc(OC)c1OC
GI50 [1]: 1580 nM
GI50 [2]: 1880 nM
GI50 [3]: 1780 nM
GI50 [4]: 2130 nM
GI50 [5]: 2700 nM
GI50 [6]: 1990 nM
GI50 [7]: 1880 nM
fold change (FC) [8]: 0.8
inhibition [9]: 75.4%
hemolysis at 0.5 h, 10000 µM [10]: 79.7%
GI50 [11]: 1730 nM
GI50 [12]: 1520 nM
GI50 [13]: 1700 nM
GI50 [14]: 1910 nM
GI50 [15]: 1700 nM
GI50 [16]: 2380 nM
GI50 [17]: 1640 nM
GI50 [18]: 1980 nM
GI50 [19]: 2320 nM
fold change (FC) [20]: 1.01
GI50 [21]: 1940 nM
fold change (FC) [22]: 0.81
GI50 [23]: 1740 nM
GI50 [24]: 2160 nM
inhibition of growth at 10 µM [25]: 73.5%
Activity [26]: Active
fold change (FC) [27]: 2.81
GI50 [28]: 5150 nM
Selectivity Index [29]: 34.4
GI50 [30]: 1660 nM
GI50 [31]: 1920 nM
GI50 [32]: 1470 nM
Activity [33]: Active
GI50 [34]: 2460 nM
GI50 [35]: 1740 nM
GI50 [36]: 1730 nM
hemolysis at 0.5 h, 5000 µM [37]: 38.7%
GI50 [38]: 3420 nM
GI50 [39]: 1780 nM
GI50 [40]: 1910 nM
LC50 [40]: 20900 nM
TGI [40]: 4160 nM
GI50 [41]: 1610 nM

N=C(N)c1ccc(-c2ccc(-c3ccc4ccccc4c3)s2)s1
GI50 [1]: 2250 nM
GI50 [2]: 1850 nM
GI50 [3]: 2270 nM
GI50 [4]: 1630 nM
GI50 [5]: 1810 nM
GI50 [6]: 1950 nM
GI50 [7]: 33600 nM
fold change (FC) [8]: 0.8
inhibition [9]: 72.8%
hemolysis at 0.5 h, 10000 µM [10]: 21.1%
GI50 [11]: 2140 nM
GI50 [12]: 14700 nM
GI50 [13]: 2450 nM
GI50 [14]: 1910 nM
GI50 [15]: 2100 nM
GI50 [16]: 1640 nM
GI50 [17]: 1910 nM
GI50 [18]: 2160 nM
GI50 [19]: 1830 nM
fold change (FC) [20]: 1
GI50 [21]: 1960 nM
fold change (FC) [22]: 0.93
GI50 [23]: 3100 nM
GI50 [24]: 1950 nM
inhibition of growth at 10 µM [25]: 96.7%
Activity [26]: Active
fold change (FC) [27]: 2.33
GI50 [28]: 20200 nM
Selectivity Index [29]: 34
GI50 [30]: 1750 nM
GI50 [31]: 2460 nM
GI50 [32]: 1810 nM
Activity [33]: Active
GI50 [34]: 2300 nM
GI50 [35]: 2250 nM
GI50 [36]: 1770 nM
hemolysis at 0.5 h, 5000 µM [37]: 13%
GI50 [38]: 1870 nM
GI50 [42]: 2520 nM
GI50 [39]: 2530 nM
GI50 [40]: 2390 nM
LC50 [40]: 30200 nM
TGI [40]: 6020 nM
GI50 [41]: 1870 nM
